Legend:
Alternaria solani = experiment: Example M: in vivo test on Alternaria solani (leaf blotch disease/tomato/protective); conditions: 168 h, tomato, protective, 500 ppm active substance, assessed 7 days after inoculation, read-out: % Wirkungsgrad (activity level)
Protocol: Solvent: 49 parts by weight N,N-dimethylformamide Emulsifier: 1 part by weight alkylaryl polyglycol ethers For the preparation of a suitable active substance preparation, 1 part by weight of active substance is mixed with the stated quantities of solvent and emulsifier and the concentrate is diluted to the desired concentration with water. For the testing for protective activity, young tomato plants are sprayed with the active substance preparation at the stated application dosage. […] 7 days after the inoculation, the assessment takes place.

[1] = LogPA (logP of the stated pure compound or, in a mixture, of the main isomer, 1-substituted 3-aryl-1H-pyrazole)

| SMILES | pest or weed control at 500 ppm (Alternaria solani) [%] | chromatographic logP (physchem; LogPA) | chromatographic logP (physchem; pH 2.7, logP (pH 2.7)) | also measured |
| --- | --- | --- | --- | --- |
| CC(C)=CCn1ncc(-c2ccncc2)c1-c1ccc(F)cc1 [Compound 25] | 90 | – | – | chromatographic logP (physchem; [1]): 2.68 |
| Fc1ccc(-c2nn(Cc3ccccc3-c3ccccc3)cc2-c2ccncc2)cc1 [Compound 135] | 78 | – | – | chromatographic logP (physchem; [1]): 2.34 |
| Cc1cc(C(=O)Cn2cc(-c3ccncc3)c(-c3ccc(F)cc3)n2)nn1C [Compound 144] | 94 | – | – | chromatographic logP (physchem; [1]): 1.31 |
| CCOC(=O)Cn1cc(-c2ccncc2)c(-c2ccc(F)cc2)n1 [Compound 170] | 78 | 1.31 | – | – |
| C#CCNc1nccc(-c2c[nH]nc2-c2ccc(F)cc2)n1 [Compound 173] | 94 | 1.44 | – | – |
| CCNC(=O)Nc1cc(-c2cn(CC(F)F)nc2-c2ccc(F)cc2)ccn1 [Compound 231] | 95 | 1.91 | – | – |
| O=C(Nc1cc(-c2cn(CC(F)F)nc2-c2ccc(F)cc2)ccn1)c1ccsc1 [Compound 235] | 94 | 2.69 | – | – |
| COCC(=O)Nc1cc(-c2cn(C(C)c3ccccc3F)nc2-c2ccc(F)cc2)ccn1 (centres unmarked) [Compound 244] | 94 | 3.5 | – | – |
| CCC(=O)Nc1cc(-c2cn(C(C)c3ccccc3F)nc2-c2ccc(F)cc2)ccn1 (centres unmarked) [Compound 248] | 94 | 3.03 | – | – |
| CC(c1ccccc1F)n1cc(-c2ccnc(NC(=O)C3CC3)c2)c(-c2ccc(F)cc2)n1 (centres unmarked) [Compound 259] | 90 | 3.13 | – | – |
| O=C(Nc1cc(-c2cn(OC3CCCC3)nc2-c2ccc(F)cc2)ccn1)C1CC1 [Compound 269] | 89 | 3.35 | – | – |
| CC(C)Cn1cc(-c2ccnc(NCC3CC3)n2)c(-c2ccc(F)cc2)n1 [Compound 273] | 90 | 2.55 | – | – |
| Fc1ccc(-c2nn(CC3OCCO3)cc2-c2ccncc2)cc1 [Compound 275] | 90 | 1.02 | – | – |
| CC(C)n1cc(-c2ncnc3[nH]cnc23)c(-c2ccc(F)cc2)n1 [Compound 282] | 70 | 1.79 | – | – |
| CCC(=O)Nc1cc(-c2cn(Cc3cccc(C#N)c3)nc2-c2ccc(F)cc2)ccn1 [Compound 302] | 95 | 2.38 | – | – |
| CC(C1CC1)n1cc(-c2ccncc2)c(-c2ccc(F)cc2)n1 (centres unmarked) [Compound 305] | 100 | 1.59 | – | – |
| CC(C)n1cc(-c2ncnc3[nH]ccc23)c(-c2ccc(F)cc2)n1 [Compound 310] | 95 | 1.61 | – | – |
| CC(Nc1cc(-c2cn(CC3CC3)nc2-c2ccc(F)cc2)ccn1)C(F)(F)F (centres unmarked) [Compound 317] | 70 | 2.33 | – | – |
| CC(C)n1cc(-c2ccnc(NC(C)C(F)(F)F)c2)c(-c2ccc(F)cc2)n1 (centres unmarked) [Compound 318] | 80 | 2.26 | – | – |
| CC(Nc1cc(-c2cn(C)nc2-c2ccc(F)cc2)ccn1)C(F)(F)F (centres unmarked) [Compound 319] | 90 | 1.73 | – | – |
| COCC(=O)Nc1cc(-c2cn(C3CC3)nc2-c2ccc(F)cc2)ccn1 [Compound 321] | 70 | 2.37 | – | – |
| CCOC(=O)CC(CC)CC(=O)Nc1cc(-c2cn(CC)nc2-c2ccc(F)cc2)ccn1 (centres unmarked) [Compound 332] | 90 | 2.9 | – | – |
| C[C@H](O)C(=O)Nc1cc(-c2cn(C)nc2-c2ccc(F)cc2)ccn1 [Compound 353] | 80 | 1.57 | – | – |
| CC(C)Nc1nccc(-c2cn(C)nc2-c2ccc(F)cc2)n1 [Compound 361] | 70 | 1.65 | – | – |
| CC(C)Nc1nccc(-c2cn(CCC#N)nc2-c2ccc(F)cc2)n1 [Compound 362] | 80 | 1.74 | – | – |
| C#CCn1cc(-c2ccnc(NC(C)C)n2)c(-c2ccc(F)cc2)n1 [Compound 363] | 90 | 1.99 | – | – |

| SMILES | pest or weed control at 500 ppm (Alternaria solani) [%] | chromatographic logP (physchem; LogPA) | chromatographic logP (physchem; pH 2.7, logP (pH 2.7)) | also measured |
| --- | --- | --- | --- | --- |
| CC(C)Nc1nccc(-c2cn(CC(F)F)nc2-c2ccc(F)cc2)n1 [Compound 364] | 95 | 2.05 | – | – |
| CCC(=O)Nc1nccc(-c2cn(CC(C)C)nc2-c2ccc(F)cc2)n1 [Compound 365] | 80 | 2.7 | – | – |
| CCn1cc(-c2ccnc(NC(C)C)n2)c(-c2ccc(F)cc2)n1 [Compound 370] | 95 | 1.91 | – | – |
| FC(F)(F)Oc1ccc(-c2c(-c3ccncc3)cnn2C2CCCCO2)cc1 (centres unmarked) [[X-19], 4-{1-(tetrahydro-2H-pyran-2-yl)-5-[4-(trifluoromethoxy)phenyl]-1H-pyrazol-4-yl}pyridine] | – | – | – | chromatographic logP (physchem; pH 2.3, LogP (pH 2.3)): 1.78 |
| Clc1cccc(-c2c(-c3ccncc3)cnn2C2CCCCO2)c1Cl (centres unmarked) [[X-20], 4-[5-(2,3-dichlorophenyl)-1-(tetrahydro-2H-pyran-2-yl)-1H-pyrazol-4-yl]pyridine] | – | – | – | chromatographic logP (physchem; pH 2.3, LogP (pH 2.3)): 1.66 |
| CN(C)c1cccc(-c2c(-c3ccncc3)cnn2C2CCCCO2)c1 (centres unmarked) [[X-21], N,N-dimethyl-3-[4-(pyridin-4-yl)-1-(tetrahydro-2H-pyran-2-yl)-1H-pyrazol-5-yl]aniline] | – | – | – | chromatographic logP (physchem; pH 2.3, LogP (pH 2.3)): 1.33 |
| c1ccc(COc2ccccc2-c2c(-c3ccncc3)cnn2C2CCCCO2)cc1 (centres unmarked) [[X-22], 4-{5-[2-(benzyloxy)phenyl]-1-(tetrahydro-2H-pyran-2-yl)-1H-pyrazol-4-yl}pyridine] | – | – | – | chromatographic logP (physchem; pH 2.3, LogP (pH 2.3)): 1.64 |
| NS(=O)(=O)c1ccc(-c2c(-c3ccncc3)cnn2C2CCCCO2)cc1 (centres unmarked) [[X-23], 4-[4-(pyridin-4-yl)-1-(tetrahydro-2H-pyran-2-yl)-1H-pyrazol-5-yl]benzenesulphonamide] | – | – | – | chromatographic logP (physchem; pH 2.3, LogP (pH 2.3)): 0.92 |
| c1cnc2c(-c3c(-c4ccncc4)cnn3C3CCCCO3)cccc2c1 (centres unmarked) [[X-24], 8-[4-(pyridin-4-yl)-1-(tetrahydro-2H-pyran-2-yl)-1H-pyrazol-5-yl]quinoline] | – | – | – | chromatographic logP (physchem; pH 2.3, LogP (pH 2.3)): 1.09 |
| CSc1nccc(-c2cn(C(C)C)nc2-c2ccc(F)cc2)n1 [[XL-1], 4-[3-(4-Fluorophenyl)-1-isopropyl-1H-pyrazol-4-yl]-2-(methylsulphanyl)pyrimidine] | – | – | 3.62 | – |
| CC(C)n1cc(-c2ccnc(S(C)(=O)=O)n2)c(-c2ccc(F)cc2)n1 [[XLI-1], 4-[3-(4-Fluorophenyl)-1-isopropyl-1H-pyrazol-4-yl]-2-(methylsulphonyl)pyrimidine] | – | – | 2.9 | – |
| O=C(Cc1ccnc(Cl)n1)c1ccc(F)cc1 [[XLIII-1], 2-(2-Chloropyrimidin-4-yl)-1-(4-fluorophenyl)ethanone] | – | – | 2.27 | – |
| CC(C)Nc1nccc(CC(=O)c2ccc(F)cc2)n1 [[XLIV-1], 1-(4-fluorophenyl)-2-[2-(isopropylamino)pyrimidin-4-yl]ethanone] | – | – | 2.05 | – |
| CC(C)Nc1nccc(C(=CN(C)C)C(=O)c2ccc(F)cc2)n1 [[XLV-1], 3-(Dimethylamino)-1-(4-fluorophenyl)-2-[2-(isopropylamino)pyrimidin-4-yl]prop-2-en-1-one] | – | – | 1.45 | – |
| CC(C)Nc1nccc(-c2c[nH]nc2-c2ccc(F)cc2)n1 [[XLVI-1], 4-[3-(4-fluorophenyl)-1H-pyrazol-4-yl]-N-isopropylpyrimidin-2-amine] | – | – | 1.37 | – |
| COCC(=O)Nc1cc(B2OC(C)(C)C(C)(C)O2)ccn1 [[XV-a-1], 2-Methoxy-N-[4-(4,4,5,5-tetramethyl-1,3,2-dioxaborolan-2-yl)pyridin-2-yl]acetamide] | – | – | -0.18 | – |
| CC(C)C(=O)Nc1cc(B2OC(C)(C)C(C)(C)O2)ccn1 [[XV-a-4], 2-Methyl-N-[4-(4,4,5,5-tetramethyl-1,3,2-dioxaborolan-2-yl)pyridin-2-yl]propanamide] | – | – | 0.04 | – |
| CC1(C)OB(c2ccnc(NC(=O)CC3CC3)c2)OC1(C)C [[XV-a-5], 2-Cyclopropyl-N-[4-(4,4,5,5-tetramethyl-1,3,2-dioxaborolan-2-yl)pyridin-2-yl]acetamide] | – | – | 0.27 | – |
| CCOC(=O)Nc1cc(B2OC(C)(C)C(C)(C)O2)ccn1 [[XV-a-6], Ethyl [4-(4,4,5,5-tetramethyl-1,3,2-dioxaborolan-2-yl)pyridin-2-yl]carbamate] | – | – | 0 | – |
| CC1(C)OB(c2ccnc(NC(=O)C3CC3)c2)OC1(C)C [[XV-a-7], N-[4-(4,4,5,5-Tetramethyl-1,3,2-dioxaborolan-2-yl)pyridin-2-yl]cyclopropanecarboxamide] | – | – | 0 | – |
| O=C(Cc1ccncc1)c1c(F)cccc1F [[XXV-1], 1-(2,6-Difluorophenyl)-2-(pyridin-4-yl)ethanone] | – | – | 0.62 | – |
| CN(C)C=C(C(=O)c1c(F)cccc1F)c1ccncc1 [[XXVI-1], 1-(2,6-Difluorophenyl)-3-(dimethylamino)-2-(pyridin-4-yl)prop-2-en-1-one] | – | – | 0.6 | – |
| Fc1cccc(F)c1-c1n[nH]cc1-c1ccncc1 [[XXVII-1], 4-[3-(2,6-Difluorophenyl)-1H-pyrazol-4-yl]pyridine] | – | – | 1.54 | – |
| Fc1ccc(-c2n[nH]c(Br)c2-c2ccncc2)cc1 [[XXVIII-1], 4-[5-Bromo-3-(4-fluorophenyl)-1H-pyrazol-4-yl]pyridine] | – | – | 0.92 | – |
| CSc1nccc(-c2c[nH]nc2-c2ccc(F)cc2)n1 [[XXXIX-1], 4-[3-(4-Fluorophenyl)-1H-pyrazol-4-yl]-2-(methylsulphanyl)pyrimidine] | – | – | 2.28 | – |
